Key:
[1] = xn = mol fraction of the nth substance listed; details: 101.3 kPa, Liquid, x1 = 1; for viscosity: Capillary tube (Ostwald / Ubbelohde) method; for mass density: Pycnometric method
[2] = Liquid; for viscosity / mass density: 101.3 kPa; for viscosity: Capillary tube (Ostwald / Ubbelohde) method; for mass density: Pycnometric method; for vapor or sublimation pressure: Ebulliometric method (Recirculating still)

CC(=O)C1CC1 [1-cyclopropyl ethanone] + CC(=O)C1CCOC1=O
[1]
Details | mass density [kg/m3] | viscosity [mPa·s]
303.15 K | 889.8 | 0.5572
313.15 K | 880.3 | 0.5015
323.15 K | 870.6 | 0.4524
333.15 K | 861.2 | 0.3942

CC(=O)C1CCOC1=O (centres undefined) [2-acetylbutyrolactone]
[2]
Details | mass density [kg/m3] | vapor or sublimation pressure [kPa] | viscosity [mPa·s]
303.15 K | 1185.7 | – | 3.794
313.15 K | 1178.3 | – | 3.424
323.15 K | 1168.9 | – | 3.067
333.15 K | 1159.4 | – | 2.719
385 K | – | 0.552 | –
395.1 K | – | 1.02 | –
405.2 K | – | 1.77 | –
415.3 K | – | 2.92 | –
425.5 K | – | 4.61 | –
434.6 K | – | 6.98 | –
445.1 K | – | 10 | –
464.5 K | – | 20 | –
478.2 K | – | 30.05 | –
489.4 K | – | 40.17 | –
505.8 K | – | 60.05 | –
511.5 K | – | 69.06 | –
517.3 K | – | 78.1 | –
523.3 K | – | 88.01 | –
530.8 K | – | 103.54 | –
530.9 K | – | 101.3 | –

CC(=O)C1CC1 [1-cyclopropyl ethanone]
[2]
Details | mass density [kg/m3] | vapor or sublimation pressure [kPa] | viscosity [mPa·s]
300 K | – | 3.65 | –
303.15 K | 889.8 | – | 0.5572
310.1 K | – | 6.06 | –
313.15 K | 880.3 | – | 0.5015
320.8 K | – | 9.95 | –
323.15 K | 870.6 | – | 0.4524
333.15 K | 861.2 | – | 0.3942
337 K | – | 20.07 | –
347.7 K | – | 30.05 | –
355.6 K | – | 40.07 | –
362.1 K | – | 49.78 | –
367.6 K | – | 59.85 | –
372.6 K | – | 70.04 | –
376.9 K | – | 80.03 | –
380.6 K | – | 89.62 | –
384.8 K | – | 101.3 | –
385 K | – | 102.18 | –

CC(=O)CCCCl [1-chloro-4-pentanone]
[2]
Details | mass density [kg/m3] | vapor or sublimation pressure [kPa] | viscosity [mPa·s]
303.15 K | 1051.3 | – | 1.582
313.15 K | 1041.1 | – | 1.318
323.15 K | 1031.2 | – | 1.078
333.15 K | 1020.8 | – | 0.9667
343.2 K | – | 2.91 | –
353.1 K | – | 4.66 | –
363.1 K | – | 7.15 | –
373.8 K | – | 10.5 | –
393.8 K | – | 20.79 | –
404.6 K | – | 30.23 | –
413.8 K | – | 41.16 | –
423.8 K | – | 52.6 | –
433.5 K | – | 62.27 | –
438.1 K | – | 72.35 | –
443.6 K | – | 81.58 | –
449.3 K | – | 92.85 | –
454 K | – | 103.42 | –

Source: the NIST ThermoML archive (doi:10.1021/acs.jced.7b00344)
